# Measurements as given in PubChem BioAssay AID2060494 (Molecular Pharmacology Branch, DTP, NCI, 2025).
# System: 435261-313-R-J1-PDC complex spheroid viability
# Assay: Anticancer human tumor 435261-313-R-J1-PDC patient-derived colon adenocarcinoma cell line growth inhibition [GQUAD]
# Conditions: for IC50: curve of first compound; for viability, T/C: stronger effect = lower value
# From the text: DNA G-quadruplex Stabilizer Agents in Combinations in Complex Spheroids
# A high-throughput screen of multi-cell type tumor spheroids was designed to identify active combinations of DNA G-quadruplex stabilizer agents and targeted small molecules. Complex spheroids include a stromal component modeled by human endothelial cells (HUVEC) and fibroblasts modeled by human mesenchymal stem cells (MSCs). The concentration ranges selected for each drug and investigational agent were based upon clinically achievable concentrations if the clinical Cmax of the agent was known.
# Compounds. The drugs and investigational agents: pidnarulex (CX-5461; NSC782164), APTO-253 (NSC789042), BRACO-19 (NSC847499), peposertib (NSC802822), ceralasertib (NSC780249), elimusertib (NSC800525), camonsertib (NSC841442), AZD-1390 (NSC803789), olaparib (NSC753686), talazoparib (NSC767125), ART-558 (NSC835418), sotorasib (NSC818433), MRTX-1133 (NSC836407), SN-38 (NSC673596), topotecan (NSC609699), etoposide (NSC141540), doxorubicin (NSC123127), gemcitabine (NSC613327), 5-fluorouracil (NSC19893), paclitaxel (NSC125973), vemurafenib (NSC761431), panobinostat (NSC761190), R-306465 (JNJ-16241199; NSC773264), adavosertib (NSC754352), TP-3654 (NSC805149), carboplatin (NSC241240), KSQ-4279 (NSC840948), and staurosporine (NSC755774) were obtained from the National Cancer Institute (NCI) Developmental Therapeutics Program Chemical Repository (34). The FDA-approved anticancer drug set is available from the NCI Developmental Therapeutics Program. […] The stock solutions were prepared in dimethyl sulfoxide (DMSO, Sigma-Aldrich, St. Louis, MO, cat. D2650) at 800-fold the tested concentration and stored at -70 degrees C prior to their use. All drugs and investigational agents were tested over a range starting from a high concentration at or near the clinical Cmax and decreasing in half-log increments. If the clinical Cmax for an agent had not been determined, the highest concentration tested was 10 microM.
# 2.3 Cell Culture. All cells were maintained in an incubator at 37 degrees C and 5% CO2 with 95% humidity. The PDC lines were cultured according to standard operating procedures established by the NCI PDMR. All PDCs were thawed and cultured in Matrigel-coated flasks prepared with a working solution of 1X Ham's F-12 nutrient mix, without supplementation (Invitrogen, cat. 11765054), 100 U/mL penicillin-streptomycin (Invitrogen, cat. 15140122), and 2.5% Matrigel (Corning Inc., cat. 354248) for the first three passages. The 857933-349-R-J2-PDC line was cultured in 6C/Colon 1B media, which includes advanced DMEM/F-12 (Thermo Fisher Scientific, cat. 12634028), 10 mM HEPES (Thermo Fisher Scientific, cat. 15630080), 1X GlutaMAX supplement (Thermo Fisher Scientific, cat. 35050061), 0.1 mg/mL primocin (InvivoGen, cat. ant-pm-2), 10% defined fetal bovine serum, heat inactivated (HyClone Laboratories Inc., cat. SH30070.03HI), 50% L-WRN conditioned media (ATCC, cat. CRL-3276), 1.25 mM N-Acetyl-L-cysteine (Sigma-Aldrich, cat. A9165), 10 mM nicotinamide (Sigma-Aldrich, cat. N0636), 1X B-27 supplement (Thermo Fisher Scientific, cat. 17504044), 1X N-2 supplement (Thermo Fisher Scientific, cat. 17502048), 10 microM Y-27632 dihydrochloride (Tocris Bioscience, cat. 1254), and 50 ng/mL human EGF recombinant protein (Thermo Fisher Scientific, cat. PHG0311). The 485176-168-R4-J1-PDC line was cultured in Panc media, which includes all 6C/Colon 1B media components plus 100 ng/mL human FGF-10 (Thermo Fisher Scientific, cat. 100-26), 500 nM SB-431542 (Selleckchem, cat. S1067), and gastrin (Tocris, cat. 3006).
# […]
# [1] = second compound 0.0316 µM, first compound 0.0316 µM
# [2] = second compound 0.0316 µM, first compound 0.316 µM
# [3] = second compound 0.1 µM, first compound 0.0316 µM
# [4] = second compound 0.1 µM, first compound 0.316 µM
# [5] = second compound 0.316 µM, first compound 0.0316 µM
# [6] = second compound 0.316 µM, first compound 0.316 µM
# [7] = second compound 1 µM, first compound 0.0316 µM
# [8] = second compound 1 µM, first compound 0.316 µM
# [9] = second compound 3.16 µM, first compound 0.0316 µM
# [10] = second compound 3.16 µM, first compound 0.316 µM
# [11] = second compound 10 µM, first compound 0.0316 µM
# [12] = second compound 10 µM, first compound 0.316 µM
# 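Also: spheroids exposed to the agents for seven days before readout.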
# 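For viability, T/C in this document: percent of vehicle control viability with DMSO wells as 100%.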
structure (smiles),measurement,setting,value
Cn1ncnc1[C@H]1c2n[nH]c(=O)c3cc(F)cc(c23)N[C@@H]1c1ccc(F)cc1 + Cc1[nH]c2ccc(F)cc2c1-c1nc2c3cccnc3c3ncccc3c2[nH]1,IC50,second compound 0.0316 µM,> 316 nM
same,IC50,second compound 0.1 µM,> 316 nM
same,IC50,second compound 0.316 µM,> 316 nM
same,IC50,second compound 1 µM,> 316 nM
same,IC50,second compound 3.16 µM,< 0.999 nM
same,IC50,second compound 10 µM,< 0.999 nM
same,"viability, T/C","second compound 0.0316 µM, first compound 0.000999 µM",125%
same,"viability, T/C","second compound 0.0316 µM, first compound 0.00316 µM",95.4%
same,"viability, T/C","second compound 0.0316 µM, first compound 0.00999 µM",87.6%
same,"viability, T/C",[1],77.8%
same,"viability, T/C","second compound 0.0316 µM, first compound 0.0999 µM",93.9%
same,"viability, T/C",[2],87%
same,"viability, T/C","second compound 0.1 µM, first compound 0.000999 µM",79.2%
same,"viability, T/C","second compound 0.1 µM, first compound 0.00316 µM",83.9%
same,"viability, T/C","second compound 0.1 µM, first compound 0.00999 µM",114%
same,"viability, T/C",[3],101%
same,"viability, T/C","second compound 0.1 µM, first compound 0.0999 µM",99.5%
same,"viability, T/C",[4],80.9%
same,"viability, T/C","second compound 0.316 µM, first compound 0.000999 µM",86.9%
same,"viability, T/C","second compound 0.316 µM, first compound 0.00316 µM",110%
same,"viability, T/C","second compound 0.316 µM, first compound 0.00999 µM",92.1%
same,"viability, T/C",[5],71.7%
same,"viability, T/C","second compound 0.316 µM, first compound 0.0999 µM",82.9%
same,"viability, T/C",[6],68.5%
same,"viability, T/C","second compound 1 µM, first compound 0.000999 µM",60.2%
same,"viability, T/C","second compound 1 µM, first compound 0.00316 µM",67.9%
same,"viability, T/C","second compound 1 µM, first compound 0.00999 µM",94.8%
same,"viability, T/C",[7],72.2%
same,"viability, T/C","second compound 1 µM, first compound 0.0999 µM",60.3%
same,"viability, T/C",[8],56.2%
same,"viability, T/C","second compound 3.16 µM, first compound 0.000999 µM",43.7%
same,"viability, T/C","second compound 3.16 µM, first compound 0.00316 µM",37.5%
same,"viability, T/C","second compound 3.16 µM, first compound 0.00999 µM",25.6%
same,"viability, T/C",[9],38.6%
same,"viability, T/C","second compound 3.16 µM, first compound 0.0999 µM",31.8%
same,"viability, T/C",[10],41.7%
same,"viability, T/C","second compound 10 µM, first compound 0.000999 µM",18.4%
same,"viability, T/C","second compound 10 µM, first compound 0.00316 µM",32.4%
same,"viability, T/C","second compound 10 µM, first compound 0.00999 µM",31.2%
same,"viability, T/C",[11],22.7%
same,"viability, T/C","second compound 10 µM, first compound 0.0999 µM",22.6%
same,"viability, T/C",[12],22.1%
CC(C)n1c(=O)n(C)c2cnc3cc(F)c(-c4ccc(OCCCN5CCCCC5)nc4)cc3c21 + Cc1cnc(CNC(=O)c2c(=O)c3ccc(N4CCCN(C)CC4)nc3n3c2sc2ccccc23)cn1,IC50,second compound 0.0316 µM,3960 nM
same,IC50,second compound 0.1 µM,4640 nM
same,IC50,second compound 0.316 µM,1080 nM
same,IC50,second compound 1 µM,< 31.6 nM
same,IC50,second compound 3.16 µM,< 31.6 nM
same,IC50,second compound 10 µM,< 31.6 nM
same,"viability, T/C",[1],81.5%
same,"viability, T/C","second compound 0.0316 µM, first compound 0.1 µM",68%
same,"viability, T/C",[2],74.5%
same,"viability, T/C","second compound 0.0316 µM, first compound 1 µM",56.7%
same,"viability, T/C","second compound 0.0316 µM, first compound 3.16 µM",61.4%
same,"viability, T/C","second compound 0.0316 µM, first compound 10 µM",32.5%
same,"viability, T/C",[3],61%
same,"viability, T/C","second compound 0.1 µM, first compound 0.1 µM",61.6%
same,"viability, T/C",[4],63.3%
same,"viability, T/C","second compound 0.1 µM, first compound 1 µM",57.8%
same,"viability, T/C","second compound 0.1 µM, first compound 3.16 µM",60.9%
same,"viability, T/C","second compound 0.1 µM, first compound 10 µM",28.6%
same,"viability, T/C",[5],50.7%
same,"viability, T/C","second compound 0.316 µM, first compound 0.1 µM",64.7%
same,"viability, T/C",[6],52.8%
same,"viability, T/C","second compound 0.316 µM, first compound 1 µM",49.3%
same,"viability, T/C","second compound 0.316 µM, first compound 3.16 µM",42.9%
same,"viability, T/C","second compound 0.316 µM, first compound 10 µM",30.9%
same,"viability, T/C",[7],42.4%
same,"viability, T/C","second compound 1 µM, first compound 0.1 µM",45.1%
same,"viability, T/C",[8],45.7%
same,"viability, T/C","second compound 1 µM, first compound 1 µM",48.1%
same,"viability, T/C","second compound 1 µM, first compound 3.16 µM",26.1%
same,"viability, T/C","second compound 1 µM, first compound 10 µM",5.54%
same,"viability, T/C",[9],14.6%
same,"viability, T/C","second compound 3.16 µM, first compound 0.1 µM",8.86%
same,"viability, T/C",[10],7.48%
same,"viability, T/C","second compound 3.16 µM, first compound 1 µM",16.6%
same,"viability, T/C","second compound 3.16 µM, first compound 3.16 µM",5.15%
same,"viability, T/C","second compound 3.16 µM, first compound 10 µM",0.23%
same,"viability, T/C",[11],0.18%
same,"viability, T/C","second compound 10 µM, first compound 0.1 µM",0.2%
same,"viability, T/C",[12],0.2%
same,"viability, T/C","second compound 10 µM, first compound 1 µM",0.18%
same,"viability, T/C","second compound 10 µM, first compound 3.16 µM",0.29%
same,"viability, T/C","second compound 10 µM, first compound 10 µM",0.16%
